Measured values taken from patent publication US20160045463A1, “USE OF METALLOPROTEASE INHIBITORS IN THE TREATMENT OF POLYCYSTIC LIVER DISEASES” (UNIVERSIDAD DE SALAMANCA, priority 2012, published 2016).

How the values were obtained:
[1] = test system: normal human cholangiocytes; experiment: Metalloproteolytic activity of culture supernatants, ES001 fluorogenic peptide cleavage; format: cell-based; details: normal cholangiocytes; 13-cis-retinoic acid 10 μM/ml or Marimastat 200 μM/ml; p<0.01; FIG. 21
Description: (§1) Metalloproteolytic or metalloprotease activity was measured in supernatants of cultures of normal human cholangiocytes and polycystic human cholangiocytes by an assay based on the cleavage of the ES001 fluorogenic synthetic peptide (R&D Systems Minneapolis, Minn., USA) that emits fluorescence proportional to metalloproteolytic activity. The substrate Mca-Pro-Leu-Gly-Leu-Dpa-Ala-Arg-NH2 [Mca: (7-Methoxycoumarin-4-yl)acetyl, Dpa: N-3-(2,4-Dinitrophenyl)-L-2,3-diaminopropionyl] (Knight C G, et al. FEBS Letters 1992; 296:263) is lysed between glycine and leucine by the action of the MMPs, especially MMP-1 (collagenase 1), MMP-2 (gelatinase A), MMP-7 (matrilysin), MMP-8 (collagenase 2), MMP-9 (gelatinase B), MMP-12 (macrophage elastase), MMP-13 (collagenase 3), MMP-14 (MT1-MMP), MMP-15 (MT2-MMP) and MMP-16 (MT3-MMP).
(§2) The basal metalloproteolytic activity of normal human cholangiocyte and polycystic human cholangiocytes cultures was determined by trypsinising the contents of 250 ml flasks and counting the number of cells in an inverted optical microscope using a Neubauer camera and a ½ dilution of the cell solution with trypan blue (Sigma). Next, 300,000 cells were seeded in each well of a 6-well plate and incubated with enriched DMEM/F-12 medium for 24 hours. After this time, the cells were washed with PBS and the culture medium changed for 2 ml of quiescent medium (DMEM/F-12, 1% FBS and 1% P/S) and incubated for 6 hours at 37° C./5% CO2. The supernatant was collected from each well and centrifuged at 4° C. for 10 minutes at 1,500 rpm to remove the dead cells present in the supernatant. The supernatant was concentrated 50 times using a 15 kDa (Millipore) Amicon Ultra concentrator. Next the concentrated supernatant was incubated for 2 hours at 37° C. with the ES001 fluorogenic peptide at a final concentration of 10 μM. Also, GM6001 (a global MMP inhibitor) and aprotinin (a global inhibitor of serine proteases) (both from Sigma-Aldrich) were used as controls of the specificity of the analysis of MMP activity in the assay. Recombinant MMP-10 (kindly provided by Dr. José Antonio Rodriguez Garcia, Laboratorio de Ateroesclerosis e Inflamación del CIMA, Universidad de Navarra) was used as a positive control and DMEM/F-12 medium without serum was used as the negative control. The fluorescence determination was kinetically measured in a Spectra MAX GeminiXS (Molecular Devices Sunnyvale, Calif., USA) spectrophotometer at excitation-emission wavelengths of 320-405 nm. The fluorescence intensity emitted by the culture medium was extracted from the metalloproteolytic activity values. The metalloproteolytic activity was calculated from the tangent to the curve of the fluorescence values using at least six different points over time for each type of cell and condition.
(§3) To analyse the effect of various stimuli on the metalloproteolytic activity of normal and polycystic human cholangiocytes cultures, a protocol similar to that described before in Example 2 was followed, but in this case the incubation of the cells was with quiescent medium (i.e. DMEM/F12, […]) in the presence of the corresponding stimulus (Table 3). Next, the same procedure as described for the analysis of basal metalloproteolytic activity was followed as described in Example 2.
(§4) Taking into account that: i) basal activity of polycystic human cholangiocytes in culture is greater than that of normal human cholangiocytes and ii) that IL-6 and IL-8 increased the metalloproteolytic activity of normal and polycystic human cholangiocytes, the role of these two cytokines on metalloproteolytic hyperactivity of polycystic human cholangiocytes using antibodies against the receptors of IL-6 (IL6R) and/or IL-8 (CXCR1) was investigated. […]

[2] = test system: polycystic human cholangiocytes; experiment: as above; format: cell-based; details: polycystic cholangiocytes; 13-cis-retinoic acid 10 μM/ml or Marimastat 200 μM/ml; p<0.01; FIG. 21
Description: as §1, §2, §3, §4

normal rats = experiment: Normal rats treated with Marimastat orally for 1 week; format: in vivo, rat; details: oral, same dose
Description: The various biochemical and histological markers listed above were also analysed. […] There were also no changes in the mean body weight of the animals.

histology of the liver or the kidney (normal rats): did not affect
serum levels of biochemical markers (normal rats): did not affect
Compound: CNC(=O)[C@@H](NC(=O)[C@H](CC(C)C)[C@H](O)C(=O)NO)C(C)(C)C [Marimastat, N-[2,2-dimethyl-1-(methylcarbamoyl)propyl]-2-[hydroxy-(hydroxycarbamoyl)methyl]-4-methyl-pentanamide]
basal metalloproteolytic activity in presence of inhibitor [1]: inhibited
basal metalloproteolytic activity in presence of inhibitor [2]: inhibited
mean body weight of the animals (normal rats): no changes
